From ChEMBL document CHEMBL5154661, “Novel 2-phenyl-3-(Pyridin-2-yl) thiazolidin-4-one derivatives as potent inhibitors for proliferation of osteosarcoma cells in vitro and in vivo” (Eur J Med Chem, 2022)
In brackets after ≈: the same amount, converted by molar mass.

Tests used:
MG-63 [1] = assay: Antiproliferative activity against human MG-63 cells assessed as cell growth inhibition at 1 uM measured after 72 hrs by CCK-8 assay relative to control; format: functional
[2] = Microsomal stability in rat liver microsomes assessed as intrinsic clearance at 0.1 uM incubated for 10 mins in presence of NADPH by LC-MS/MS analysis; format: ADME, Microsome
U2OS = assay: Antiproliferative activity against human U2OS cells assessed as cell growth inhibition at 1 uM measured after 72 hrs by CCK-8 assay relative to control; format: functional
SJSA-1 [3] = assay: Antiproliferative activity against human SJSA-1 assessed as cell growth inhibition at 1 uM measured after 72 hrs by CCK-8 assay relative to control; format: functional
143B = assay: Antiproliferative activity against human 143B cells assessed as cell growth inhibition at 1 uM measured after 72 hrs by CCK-8 assay relative to control; format: functional
HOS-TE85 [4] = assay: Antiproliferative activity against human MNNG/HOS cells assessed as cell growth inhibition measured after 72 hrs by CCK-8 assay; format: functional, cell-based; details: HOS-TE85, 72 h
[5] = Kinetic solubility of compound at pH 7.4 by turbidimetry method; format: physicochemical; details: buffer, read-out: Kinetic_solubility
[6] = Kinetic solubility of compound at pH 6.8 by turbidimetry method; format: physicochemical; details: buffer, read-out: Kinetic_solubility
HOS-TE85 [7] = assay: Antiproliferative activity against human MNNG/HOS cells assessed as cell growth inhibition at 1 uM measured after 72 hrs by CCK-8 assay relative to control; format: functional
[8] = Microsomal stability in human liver microsomes assessed as intrinsic clearance at 0.1 uM incubated for 10 mins in presence of NADPH by LC-MS/MS analysis; format: ADME, Microsome
HOS = assay: Antiproliferative activity against human HOS cells assessed as cell growth inhibition at 1 uM measured after 72 hrs by CCK-8 assay relative to control; format: functional
[9] = Microsomal stability in mouse liver microsomes assessed as intrinsic clearance at 0.1 uM incubated for 10 mins in presence of NADPH by LC-MS/MS analysis; format: ADME, Microsome
MG-63 [10] = assay: Antiproliferative activity against human MG-63 cells assessed as cell growth inhibition measured after 72 hrs by CCK-8 assay; format: functional, cell-based; details: MG-63, 72 h
SJSA-1 [11] = assay: Antiproliferative activity against human SJSA-1 cells assessed as cell growth inhibition measured after 72 hrs by CCK-8 assay; format: functional, cell-based; details: SJSA-1, 72 h
[12] = Toxicity in BALB/c nude mouse xenografted with human MNNG/HOS cells assessed as body weight loss at 62.5 mg/kg, ip administered twice per day for 18 days; format: organism-based, HOS-TE85; details: in vivo, 432 h, time 18 day
HOS-TE85 [13] = assay: Antitumor activity against human MNNG/HOS cells xenografted in female BALB/c nude mouse assessed as tumor growth inhibition at 30 mg/kg, po administered daily for 18 days relative to control; format: functional; details: HOS-TE85, 432 h, time 18 day, read-out: TGI

SMILES | intrinsic clearance (CLint) [2] | solubility kinetic [5] | solubility kinetic [6] | intrinsic clearance (CLint) [8] | intrinsic clearance (CLint) [9] | IC50 (SJSA-1 [11]) | inhibition at 1 µM (MG-63 [1]) | inhibition at 1 µM (U2OS) | inhibition at 1 µM (SJSA-1 [3]) | inhibition at 1 µM (143B) | IC50 (HOS-TE85 [4]) | inhibition at 1 µM (HOS-TE85 [7]) | inhibition at 1 µM (HOS) | IC50 (MG-63 [10]) | Activity [12] | inhibition in vivo at 30 mg/kg (HOS-TE85 [13])
Cc1ccnc(N2C(=O)CSC2c2cccc(C(=O)NCCCCn3cccn3)c2)c1 (racemic) | 1022 mL/min/g | 50 µM (≈ 21.8 µg/mL) | 50 µM (≈ 21.8 µg/mL) | 128.7 mL/min/g | 392 mL/min/g | 33.2 nM | – | – | – | – | 19.6 nM | – | – | 38.9 nM | – | –
CC(F)(F)c1cccc(N2C(=O)CSC2c2cccc(C(=O)NCCCCc3ccccc3)c2)c1 (stereo unspecified) | 2323 mL/min/g | 2 µM (≈ 0.989 µg/mL) | 10 µM (≈ 4.95 µg/mL) | 1750 mL/min/g | 2014 mL/min/g | – | 92% | 24% | 68% | 1% | 29.1 nM | 93% | 23% | – | – | –
CCN1C(=O)CSC1c1cccc(C(=O)NCCCCc2ccccc2)c1 (stereo unspecified) | – | – | – | – | – | – | 0% | 13% | 3% | 40% | > 1000 nM | 0% | 6% | – | – | –
CNC(=O)c1cc(Oc2ccc(NC(=O)Nc3ccc(Cl)c(C(F)(F)F)c3)cc2)ccn1 [SORAFENIB] | – | – | – | – | – | – | – | – | – | – | – | – | – | – | Non-Toxic | 44.2%
O=C(NCCCCc1ccccc1)c1cccc(C2SCC(=O)N2c2ccccc2)c1 (stereo unspecified) | – | – | – | – | – | – | 89% | 68% | 73% | 60% | 15.9 nM | 96% | 55% | – | – | –
O=C(NCCCCc1ccccc1)c1cccc(C2SCC(=O)N2c2cccc(F)c2)c1 (stereo unspecified) | 3244 mL/min/g | 10 µM (≈ 4.49 µg/mL) | 10 µM (≈ 4.49 µg/mL) | 1844 mL/min/g | 2737 mL/min/g | – | 92% | 39% | 80% | 63% | 32.4 nM | 94% | 84% | – | – | –

The next lines start with results.

intrinsic clearance (CLint) [2] | solubility kinetic [5] | solubility kinetic [6] | intrinsic clearance (CLint) [8] | intrinsic clearance (CLint) [9] | IC50 (SJSA-1 [11]) | SMILES | inhibition at 1 µM (MG-63 [1]) | inhibition at 1 µM (U2OS) | inhibition at 1 µM (SJSA-1 [3]) | inhibition at 1 µM (143B) | IC50 (HOS-TE85 [4]) | inhibition at 1 µM (HOS-TE85 [7]) | inhibition at 1 µM (HOS) | IC50 (MG-63 [10]) | Activity [12] | inhibition in vivo at 30 mg/kg (HOS-TE85 [13])
2908 mL/min/g | 10 µM (≈ 4.75 µg/mL) | 20 µM (≈ 9.49 µg/mL) | 2657 mL/min/g | 2948 mL/min/g | – | COc1ccccc1N1C(=O)C(C)SC1c1cccc(C(=O)NCCCCc2ccccc2)c1 (stereo unspecified) | 94% | 38% | 84% | 61% | 45.1 nM | 95% | 82% | – | – | –
2298 mL/min/g | 10 µM (≈ 4.79 µg/mL) | 10 µM (≈ 4.79 µg/mL) | 1253 mL/min/g | 2247 mL/min/g | – | COc1ccc(F)cc1N1C(=O)CSC1c1cccc(C(=O)NCCCCc2ccccc2)c1 (stereo unspecified) | 86% | 32% | 76% | 62% | 8.8 nM | 95% | 46% | – | – | –
3139 mL/min/g | 10 µM (≈ 4.45 µg/mL) | 10 µM (≈ 4.45 µg/mL) | 2553 mL/min/g | 2936 mL/min/g | – | Cc1cccc(N2C(=O)CSC2c2cccc(C(=O)NCCCCc3ccccc3)c2)c1 (stereo unspecified) | 93% | 39% | 84% | 71% | 93.2 nM | 96% | 84% | – | – | –
2946 mL/min/g | 10 µM (≈ 4.49 µg/mL) | 20 µM (≈ 8.97 µg/mL) | 1712 mL/min/g | 2014 mL/min/g | – | O=C(NCCCCc1ccccc1)c1cccc(C2SCC(=O)N2c2ccccc2F)c1 (stereo unspecified) | 92% | 38% | 80% | 59% | 34.1 nM | 95% | 83% | – | – | –
